Data reported in patent US9481662B2, “Seriniquinones, melanoma-specific anticancer agents” (The Regents of the University of California, priority 2012, dated 2016).

Legend:
[1] = target: T1, dermcidin (DCD) (Homo sapiens, UniProt P81605); assay: Immunoprecipitation with IAF probe and LC-MS/MS target identification; format: binding; conditions: HCT-116 cell lysates, iodoacetamide treatment
T1 construct: endogenous in cells; host or cells: HCT-116 cell lysate
T1 sequence (P81605 20-110): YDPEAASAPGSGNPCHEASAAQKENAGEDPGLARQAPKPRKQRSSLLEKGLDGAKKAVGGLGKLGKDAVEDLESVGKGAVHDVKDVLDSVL
Protocol: Using established protocols,^13 HCT-116 cell lysates were treated for 8 h with probe 13 and immunoprecipitated with resins bearing a covalently-attached anti-IAF mAb.^14 Over multiple repetitions, a series of proteins ranging from 30-250 kDa were obtained in a manner dependent on the concentration probe 13 (FIG. 5A). […] Trypsin digestion coupled with LC-MS/MS analyses was then applied to identify the proteins in the more abundant bands. […] In addition to peptides from GADPH, peptides were also found in the 50 kDa band (b1, FIG. 5A) that corresponded to the 30 aa PIF core, 13 aa propeptide, and 47 aa DCD-1 peptide region of dermcidin (DCD) (FIG. 5B).
Interested if this was the case in this experimentation, the immunoprecipitated fractions were treated with 5 mM iodoacetamide prior to gel analysis. As indicated (Lane L1, FIG. 5C), a low molecular weight band corresponding to DCD appeared.
An 1 mg/mL stock of probe 14a/14b in DMSO solution was added to 1 mL of cell lysate containing ˜1 mg/mL in net protein to provide a net concentration of 3 μM 14a/14b or 30 μM 14a/14b. […]
Silver Stained bands were excised from the polyacrylamide gel and destained. […] General procedure was using in-gel trypsin digest and then the trypsin-digested peptides were analyzed by liquid chromatography LC-MS/MS with electrospray ionization. […]

[2] = tested on: HCT-116 cells; assay: Cytotoxicity analysis (MTT/MTS) in HCT-116 colon carcinoma cells; format: cell-based, human; conditions: Homo sapiens; HCT-116 cells; read-out: IC50
Source text: Fortunately, 1 was fluorescent with excitation maxima at 250 nm (ε=20,800 cm^−1M^−1), 289 nm (ε=24,000 cm^−1M^−1) and 342 nm (ε=6900 cm^−1M^−1) and a broad emission from 490-680 nm. Using confocal microscopy, red and green fluorescence from 1 appeared in HCT-116 cells within minutes of addition (FIG. 3A). […] Time course confocal imaging studies were then combined with conventional activity MTT assays^6 to provide a detailed correlation between cellular localization and cytostatic activity.
HCT-116 colon carcinoma cells were plated in 96-well plates at 2.5×10^4 cells/well. After 24 h, the cultures were treated with a single concentration seriniquinone (1) within the range of 0.02-20.0 μM, etoposide (positive control) in the range of 0.05-50 μM or 1% DMSO (negative control). The cells were incubated for either 24 h, 48 h or 72 h. At the end of the incubation period, cultures were added with 3-(4,5-dimethylthiazol-2-yl)-5-(3-carboxymethoxyphenyl)-2-(4-sulfophenyl)-2H-tetrazolium (MTS) for 3 h. Cell viability was quantified by the ability of living cells to reduce the yellow MTS dye to a purple formazan product. Time course experiments were also conducted in HCT-116 cells. Cells were exposed to 1 over short periods (1 h, 3 h, 6 h, and 9 h) followed by incubation in drug-free media to complete a total of 24 h incubation before addition of MTS.

[3] = tested on: HCT-116 cells; assay: Confocal microscopy subcellular localization; format: cell-based, human; conditions: confocal imaging with counterstains
Protocol: Confocal studies were conducted on a LSM 710 inverted confocal microscope (Zeiss) with scanning module with 3 detection channels, Plan-Apochromat 63×/1.4 na objective, diode laser (405 nm, CW pulsed, 30 mW), Ar-laser (458 nm, 488 nm, 514 nm, 25 mW), HeNe-laser (543 nm, 1 mW) and HeNe-laser (633 nm, 5 mW). For all procedures, cells were seeded 24 h prior to treatment, to allow for adequate attachment to the well or flask bottom. Cells were plated in glass-bottom dishes (MatTek Corporation) for microscopic analyses at 1×10^5 cells/mL. Compounds were added to cells under 1 mL of media from […] such that the DMSO content remained under 0.1%. […]
Colocalization studies were conducted by treating cells (HCT-116 or MALME-3M) at a density of 1×10^5 cells/cm^2 in a 35 mm glass-bottom dish (MatTek Corporation). […] After 30 min, cells were washed PBS (4×1 mL) and immediately analyzed by confocal microscope. […] The localization of seriniquinone (1) was acquired by red fluorescence with emission at 550-631 nm, while the ER-tracker was acquired by blue florescence with emission at 406-450 nm. […] After 15 min, cells were washed PBS (4×1 mL) and immediately analyzed by confocal microscope. […] The localization of seriniquinone (1) was acquired by red fluorescence with emission at 550-631 nm, while the ER-tracker was acquired by blue florescence with emission at 415-530 nm.

[4] = tested on: DCD-1L; assay: Covalent labeling of DCD-1L peptide (fluorescent band on SDS-PAGE); format: binding, human; conditions: 50 μM, PBS pH 7.2, 5% DMSO, 23° C., 24 h (FIG. 5E)
Source text: FIGS. 5A-5E: Seriniquinone (1) targets dermcidin (DCD). […] Sequence listing (FIG. 5B): […] (SEQ ID NO:3); […] (SEQ ID NO:4).
The reactivity between 1 and DCD was then examined. […] These studies now provided initial support for the formation of a unique trimeric covalent adduct, compound 15, between 1, DCD and targeted proteins such as GADPH.

CN(C)c1ccc2c(CC(=O)NCCCCCCNC(=O)CCc3ccc4c(=O)c5c(sc6c(=O)c7ccccc7c(=O)c65)c(=O)c4c3)cc(=O)oc2c1 [Probe 13, N-(6-(2-(7-(dimethylamino)-2-oxo-2H-chromen-4-yl)acetamido)hexyl)-3-(5,7,12,13-tetraoxo-5,7,12,13-tetrahydrodinaphtho[2,3-b:2′,3′-d]thiophen-3-yl)propanamide]
protein target identified by immunoprecipitation [1]: DCD was indeed a primary target | IC50 [2]: 250 ± 80 nM | subcellular localization [3]: rapid uptake in the ER followed by transport into autophagosomes | fluorescent labeling of DCD-1L fragment [4]: fluorescent bands corresponding to DCD-1L
